Numbers after ± are expanded uncertainties.
Key:
[1] = refractive index (Na D-line) (dimensionless); wn = mass fraction of the nth substance listed; settings: Liquid, Standard Abbe refractometry
[2] = wn = mass fraction of the nth substance listed; settings: Liquid, Vibrating tube method

SMILES	refractive index ([1]; 288.15 K, w1 = 0.2596)	refractive index ([1]; 298.15 K, w1 = 0.2561)	mass density ([2]; 288.15 K, w1 = 0.2596) [kg/m3]	mass density ([2]; 298.15 K, w1 = 0.2561) [kg/m3]	refractive index ([1]; 288.15 K, w1 = 0.0187)	refractive index ([1]; 298.15 K, w1 = 0.0336)	mass density ([2]; 288.15 K, w1 = 0.0187) [kg/m3]	mass density ([2]; 298.15 K, w1 = 0.0336) [kg/m3]
O=S(=O)([O-])[O-].[Li+].[Li+] [lithium sulfate] + O	1.3788 ± 0.0005	1.3771 ± 0.0006	1246.65 ± 1.8	1245.02 ± 2.7	–	–	–	–
O=B[O-].[Li+] [lithium metaborate] + O	–	–	–	–	1.341 ± 0.0005	1.3452 ± 0.0004	1023.17 ± 0.34	1035.63 ± 0.26
